This assay is described as follows: Measuring Compound Inhibitory Potency: Measurement of inhibition by compounds was performed using the HCV replicon system. Several different replicons encoding different HCV genotypes or mutations were used. In addition, potency measurements were made using different formats of the replicon assay, including different ways of measurements and different plating formats. See Jan M. Vrolijk et al., A replicons-based bioassay for the measurement of interferons in patients with chronic hepatitis C, 110 J. VIROLOGICAL METHODS 201 (2003); Steven S. Carroll et al., Inhibition of Hepatitis C Virus RNA Replication by 2′-Modified Nucleoside Analogs, 278(14) J. BIOLOGICAL CHEMISTRY 11979 (2003). However, the underlying principles are common to all of these determinations, and are outlined below.Stable neomycin phosphotransferase encoding replicon-harboring cell lines were used, so all cell lines were maintained under G418 selection prior to the assay. In some cases, the cell lines encoded a luciferase:Neor fusion and could be assayed either directly by determination of RNA copy number, or indirectly through measurement of the luciferase activity.To initiate an assay, replicon cells were plated in the presence of a dilution series of test compound in the absence of G418. Typically, the assays were performed in a 96-well plate format for manual operation, or a 384-well plate in an automated assay. […]. (Replicon systems follow genome replication, usually without infectious particles.)

These results are taken from ChEMBL document CHEMBL5728694, “Inhibitors of hepatitis C virus replication” (2021).

By EC50 is commonly meant the concentration at which the effect is half-maximal. As to `COC(=O)N[C@H](C(=O)N1CCC[C@H]1c1ncc(-c2ccc3oc(-c4ccc(-c5cnc([C@@H]6CCCN6C(=O)[C@@H](NC(=O)OC)C(C)C)[nH]5)c(F)c4)cc3c2)[nH]1)C(C)C`, the EC50 amounted to 4 pM.
